Reference: US20110003753A1, “COMPOSITIONS AND METHODS FOR DISRUPTING THE FUNCTION OF THE TRANSCRIPTIONAL REPRESSOR COMPONENT Sin3A-PAH2 DOMAIN TO INDUCE DIFFERENTIATION AND GROWTH INHIBITION IN BREAST CANCER” (SAMUEL WAXMAN CANCER RESEARCH FOUNDATION, priority 2009, published 2011)

Key:
[1] = tested on: ERα and RARβ; assay: Re-expression of silenced genes in MDA-MB-231 cells; assay type: cell-based, human
Excerpt: This finding coincides with the increased expression of E-cadherin and CRBP1, known RAR target genes and the induction of p27, highly sensitive to RAR activation. […] Thus, blocking specific sites of a component of a transcriptional repressor limited to few transcription factors can be used to induce a differentiation phenotype and anti-tumor effect in breast cancer and that these events may, impart new and/or restore therapeutic targets in breast cancer.

[2] = tested on: Sin3B and MAD; assay: Mammalian two-hybrid assay, GAL4 DBD-Sin3B and VP16AD-MAD in 293T cells; assay type: cell-based; settings: 15 μM peptide applied to the cell culture medium
Excerpt: FIG. 2: SID decoy peptide blocks interactions between Sin3 PAH2 and MAD and interferes with recruitment of members of the Sin3 co-repressor complex. A. GST pull-down of MAD by the Sin3A PAH2 domain is blocked by SID peptide. Sin3A PAH2 domain (amino acids 306-450) was expressed in E. coli as a GST fusion and used in a pull down assay for in vitro interaction with 35S-methionine labeled MAD (left panel) or MAD immunoprecipitated from MDA-MB-231 cell lysates (right panel). 25% of input is shown for in vitro translated MAD and 10% of input for immunoprecipitated MAD (input). Assays were performed using 15 μM Tat-SID or Tat-SID^SCR peptide unless otherwise indicated. […] 293T cells were transfected with GAL4^uas×5-Tk-Luc reporter together with mammalian two-hybrid vectors expressing a fusion of Sin3B with GAL4 DNA binding domain (GAL4^DBD) and fusions of MAD and HDAC1 (columns 5-12 and 14-21, respectively) with VP16 activation domain (VP16^AD), as well as SID expression vectors, as indicated. […]
24 hours prior to transfection, 293T cells were plated at 50-60% confluence on 48-well plates. […] 48 hours post-transfection luciferase activity was measured using the Dual Luciferase assay system (Promega) on a Mithras LB940 plate reader (Berthold Technologies). […]

[3] = tested on: MDA-MB-231 cells; assay: Three-dimensional morphogenesis assay in Matrigel; assay type: cell-based, human; settings: 5 μM peptide, Matrigel 3D culture
Procedure: FIG. 3: A. Morphogenesis in 3D cultures in Matrigel. MDA-MB-231 and MMTV-Myc cells expressing SID or the double mutant were cultured in 3D-Matrigel for 14 days. […] B. Reversion of the invasive phenotype of the MDA-MB-231 cells in Matrigel 3D cultures. Upper panel indicates change in numbers of invasive versus non invasive colonies (as indicated in crosshatched and non-crosshatched bars, respectively) in the presence of different concentrations (as indicated) of cell penetrating SID or SID^SCR (scrambled control) peptide. The colonies were counted after 10 days of treatment with a medium containing fresh peptide changed every 24 hours. […] The reduction in invasive phenotype was quantified by counting 5 low magnification fields per well done in triplicates (upper panel). The p value was calculated using the unpaired Student t test.
3D cultures of MDA-MB-231 and MMTV-Myc cells stably transfected with pEGFP-SID, pEGFP-SID2Mut or the parent vector pEGFP-N3 were prepared as described by Debnath et al. (Debnath et al2003). Briefly, […] of growth factor depleted Matrigel (BD Biosciences) was applied on 8-well multichamber slides (BD Biosciences) and incubated at 37° C. for 30 minutes. Once the Matrigel solidified 5×10^3 cells were seeded on top of the gels in assay medium containing 2% Matrigel and 20 ng/ml […]. Growth medium was changed daily for 14 days. Once colony formation was evident, the SID or the scramble control peptide was added to the MDA-MB-231 parental cells in the medium starting at day 3. The morphology of the colonies was determined by confocal microscopy. Induction of apoptosis was determined by staining colonies with activated caspase-3 antibody (BD Transduction Labs) and cell polarization by staining with anti-GM130 antibody (BD Transduction Labs). Cell nuclei were visualized by DAPI (Sigma) staining. […]

[4] = target: T1, PAH2 domain of Sin3A and MAD (Mus musculus, UniProt Q60520); assay: GST pull-down of MAD by the Sin3A PAH2 domain; assay type: binding
T1 construct: amino acids 306-450 of mSin3A; made in house; host or cells: E. coli (GST-PAH2); MAD from rabbit reticulocyte in vitro translation or immunoprecipitated from MDA-MB-231 lysate
T1 sequence (Q60520 306-450): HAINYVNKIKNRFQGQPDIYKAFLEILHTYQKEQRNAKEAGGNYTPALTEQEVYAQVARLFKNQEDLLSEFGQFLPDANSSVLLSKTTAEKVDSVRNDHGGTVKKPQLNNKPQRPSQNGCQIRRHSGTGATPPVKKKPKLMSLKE
Excerpt: FIG. 2: SID decoy peptide blocks interactions between Sin3 PAH2 and MAD and interferes with recruitment of members of the Sin3 co-repressor complex. A. GST pull-down of MAD by the Sin3A PAH2 domain is blocked by SID peptide. Sin3A PAH2 domain (amino acids 306-450) was expressed in E. coli as a GST fusion and used in a pull down assay for in vitro interaction with 35S-methionine labeled MAD (left panel) or MAD immunoprecipitated from MDA-MB-231 cell lysates (right panel). 25% of input is shown for in vitro translated MAD and 10% of input for immunoprecipitated MAD (input). Assays were performed using 15 μM Tat-SID or Tat-SID^SCR peptide unless otherwise indicated. […]
GST pull-down assays were performed using the ProFound™ pull-down GST protein:protein interaction kit (Pierce) according to the manufacturer's instructions. […] Gels containing samples from MDA-MB-231 cell lysates were analyzed by Western immunoblot according to standard protocols. Pulled-down MAD was detected using mouse monoclonal anti-MAD (F-1) antibody (Santa Cruz), anti-mouse secondary antibody (Jackson ImmunoResearch), and enhanced chemiluminescence (ECL, Peirce).

Sequence: YGRKKRRQGGGVRMNIQMLLEAADYLERRER [SID peptide]
- re-expression of ERα and RARβ [1]: induced the re-expression of ERα and RARβ
- increase in luciferase activity compared to GAL4 DBD-Sin3B and VP16AD-MAD co-expression [2]: confirmed, albeit to a lesser degree
- number and size of the colonies [3]: reduced
- decrease in number of colonies with invasive phenotype ([3]; colonies counted after 10 days of treatment): ~80%
- blocking of interaction between PAH2 domain of Sin3A and in vitro translated MAD ([4]; 35S-methionine labeled MAD, 15 μM peptide unless otherwise indicated): blocked interactions
- blocking of interaction between PAH2 domain of Sin3A and MAD immunoprecipitated from MDA-MB-231 cells ([4]; MAD immunoprecipitated from MDA-MB-231 cell lysates, 15 μM peptide): blocked interactions
